Measurements as given in ChEMBL document CHEMBL6083273, “Targeting Periplakin of Novel Benzenesulfonamides as Highly Selective Agonists for the Treatment of Vitiligo” (2024).
Each block holds one compound with its values, some of them ahead of it. The source made the active and inactive calls. The rule behind the calls is not given here.

Key:
Danio rerio [1] = species on record: Danio rerio; experiment: Induction of melanogenesis in zebrafish treated for 24 hrs by absorbance based assay (reference value: 98.2 to 100.3 %); format: functional
Danio rerio [2] = species on record: Danio rerio; experiment: Induction of melanogenesis in zebrafish at 40 uM treated for 24 hrs by absorbance based assay; format: functional, organism-based
Danio rerio [3] = species on record: Danio rerio; experiment: Effect on tryptophan metabolism in zebrafish embryo assessed as ILA metabolite level at 10 uM by LC/MS analysis; format: functional
Danio rerio [4] = species on record: Danio rerio; experiment: Induction of melanogenesis in wild-type zebrafish at 10 uM treated for 24 hrs by absorbance based assay; format: functional, organism-based
Danio rerio [5] = species on record: Danio rerio; experiment: Effect on tryptophan metabolism in zebrafish embryo assessed as IGA metabolite level at 10 uM by LC/MS analysis; format: functional
Danio rerio [6] = species on record: Danio rerio; experiment: Binding affinity to PPL in zebrafish at 10 uM by pull down assay; conditions: filed as agonist
Danio rerio [7] = species on record: Danio rerio; experiment: Effect on tryptophan metabolism in zebrafish embryo assessed as AA metabolite level at 10 uM by LC/MS analysis; format: functional
Danio rerio [8] = species on record: Danio rerio; experiment: Effect on tryptophan metabolism in zebrafish embryo assessed as skatole metabolite level at 10 uM by LC/MS analysis; format: functional
Danio rerio [9] = experiment: In vivo agonist activity at PPL in zebrafish assessed as increase in Dct mRNA level at 10 uM by ISH analysis; format: functional, organism-based
[10] = Induction of melanogenesis in co-culture of HEK293 cells transfected with PPL (unknown origin) and mouse B16-F10 cells at 10 uM incubated for 48 hrs by Masson-Fontana staining based analysis relative to control; format: functional
Danio rerio [11] = species on record: Danio rerio; experiment: Effect on tryptophan metabolism in zebrafish embryo assessed as indole metabolite level at 10 uM by LC/MS analysis; format: functional
Danio rerio [12] = species on record: Danio rerio; experiment: Effect on tryptophan metabolism in zebrafish embryo assessed as 5-HTP metabolite level at 10 uM by LC/MS analysis; format: functional
Danio rerio [13] = species on record: Danio rerio; experiment: Effect on tryptophan metabolism in zebrafish embryo assessed as IA metabolite level at 10 uM by LC/MS analysis; format: functional
Danio rerio [14] = species on record: Danio rerio; experiment: Binding affinity to PPL in zebrafish incubated for 10 mins by LiP-SMap analysis; conditions: filed as agonist
Danio rerio [15] = species on record: Danio rerio; experiment: Effect on tryptophan metabolism in zebrafish embryo assessed as ICA metabolite level at 10 uM by LC/MS analysis; format: functional
Danio rerio [16] = species on record: Danio rerio; experiment: Effect on tryptophan metabolism in zebrafish embryo assessed as 3-HAA metabolite level at 10 uM by LC/MS analysis; format: functional
Danio rerio [17] = experiment: In vivo agonist activity at PPL in zebrafish assessed as increase in Tyr mRNA level at 10 uM by ISH analysis; format: functional, organism-based
Mus musculus [18] = experiment: In vivo agonist activity at PPL in skin of hydroquinone-induced vitiligo C57BL/6J mouse at 1.5 % administered topically for 20 days by immunofluorescence analysis; format: functional, organism-based; conditions: time 20.0 day
Danio rerio [19] = species on record: Danio rerio; experiment: Effect on tryptophan metabolism in zebrafish embryo assessed as 5-HIAA metabolite level at 10 uM by LC/MS analysis; format: functional
Danio rerio [20] = species on record: Danio rerio; experiment: Induction of melanogenesis in zebrafish harboring PPL-/- at 10 uM treated for 24 hrs by absorbance based assay; format: functional, organism-based
Danio rerio [21] = species on record: Danio rerio; experiment: Effect on mitfa mRMA level in zebrafish harboring PPL-/- at 10 uM by qRT-PCR analysis; format: functional
Danio rerio [22] = species on record: Danio rerio; experiment: Effect on pyrimidine metabolism in zebrafish embryo at 10 uM by KEGG pathway-enrichment analysis; format: functional, organism-based
Danio rerio [23] = species on record: Danio rerio; experiment: Effect on histidine metabolism in zebrafish embryo at 10 uM by KEGG pathway-enrichment analysis; format: functional, organism-based
Mus musculus [24] = experiment: Induction of melanogenesis in hydroquinone-induced vitiligo C57BL/6J mouse assessed as darker hair color administered topically for 20 days; format: functional, organism-based; conditions: route top, time 20.0 day
Danio rerio [25] = species on record: Danio rerio; experiment: Effect on tryptophan metabolism in zebrafish embryo assessed as IAA metabolite level at 10 uM by LC/MS analysis; format: functional
[26] = Induction of melanogenesis in co-culture of HEK293 cells and mouse B16-F10 cells at 10 uM incubated for 48 hrs by Masson-Fontana staining based analysis relative to control; format: functional
Danio rerio [27] = species on record: Danio rerio; experiment: Induction of melanogenesis in zebrafish treated for 24 hrs by absorbance based assay; format: functional, organism-based
Danio rerio [28] = experiment: In vivo agonist activity at PPL in zebrafish assessed as increase in cAMP content at 10 uM by ELISA; format: functional, organism-based
Danio rerio [29] = species on record: Danio rerio; experiment: Effect on tryptophan metabolism in zebrafish embryo assessed as KYNA metabolite level at 10 uM by LC/MS analysis; format: functional
Danio rerio [30] = species on record: Danio rerio; experiment: Effect on tryptophan metabolism in zebrafish embryo assessed as IAN metabolite level at 10 uM by LC/MS analysis; format: functional
Danio rerio [31] = species on record: Danio rerio; experiment: Effect on purine metabolism in zebrafish embryo at 10 uM by KEGG pathway-enrichment analysis; format: functional, organism-based
Danio rerio [32] = species on record: Danio rerio; experiment: Effect on tryptophan metabolism in zebrafish embryo assessed as LE metabolite level at 10 uM by LC/MS analysis; format: functional
Danio rerio [33] = species on record: Danio rerio; experiment: Induction of melanogenesis in zebrafish at 10 uM treated for 24 hrs by absorbance based assay; format: functional, organism-based
Danio rerio [34] = species on record: Danio rerio; experiment: Effect on cAMP content in zebrafish harboring PPL-/- at 10 uM by ELISA; format: functional, organism-based
Danio rerio [35] = species on record: Danio rerio; experiment: Effect on tryptophan metabolism in zebrafish embryo assessed as Trp metabolite level at 10 uM by LC/MS analysis; format: functional
Danio rerio [36] = species on record: Danio rerio; experiment: Effect on tryptophan metabolism in zebrafish embryo assessed as 5-HTOL metabolite level at 10 uM by LC/MS analysis; format: functional
Danio rerio [37] = experiment: In vivo agonist activity at PPL in zebrafish assessed as increase in mitfa mRNA level at 10 uM by ISH analysis; format: functional, organism-based
Danio rerio [38] = species on record: Danio rerio; experiment: Induction of melanogenesis in zebrafish at 40 uM treated for 24 hrs by absorbance based assay relative to control; format: functional
Danio rerio [39] = species on record: Danio rerio; experiment: Effect on tryptophan metabolism in zebrafish embryo assessed as 3-HK metabolite level at 10 uM by LC/MS analysis; format: functional
Danio rerio [40] = species on record: Danio rerio; experiment: Effect on tryptophan metabolism in zebrafish embryo assessed as Xa metabolite level at 10 uM by LC/MS analysis; format: functional
Danio rerio [41] = species on record: Danio rerio; experiment: Effect on tryptophan metabolism in zebrafish embryo assessed as NA metabolite level at 10 uM by LC/MS analysis; format: functional
Danio rerio [42] = experiment: In vivo agonist activity at PPL in zebrafish assessed as increase in mitfa mRNA level at 10 uM by qRT-PCR analysis; format: functional, organism-based
Danio rerio [43] = species on record: Danio rerio; experiment: Effect on tryptophan metabolism in zebrafish embryo assessed as NAS metabolite level at 10 uM by LC/MS analysis; format: functional
Mus musculus [44] = experiment: Induction of melanogenesis in hydroquinone-induced vitiligo C57BL/6J mouse at 1.5 % administered topically for 20 days by Masson-Fontana staining based analysis; format: functional, organism-based; conditions: route top, time 20.0 day
Danio rerio [45] = species on record: Danio rerio; experiment: Effect on tryptophan metabolism in zebrafish embryo assessed as IPA metabolite level at 10 uM by LC/MS analysis; format: functional

Compound: Cc1cc(-c2ccc([C@H](C)Nc3nccc(NS(=O)(=O)c4ccccc4C)n3)cc2)ccc1F
Activity (Danio rerio [1]): 63.17%

Compound: C[C@H](Nc1nccc(NS(=O)(=O)c2cccc([N+](=O)[O-])c2)n1)c1ccc(-c2ccccc2)cc1
Activity (Danio rerio [1]): 106.72%

Compound: Cc1cc(-c2ccc([C@H](C)Nc3nccc(NS(=O)(=O)c4cccc(C(F)(F)F)c4)n3)cc2)ccc1F
Activity (Danio rerio [1]): 58.78%

Compound: O=[N+]([O-])c1cccc(S(=O)(=O)Nc2ccnc(NCc3ccc(C(F)(F)F)cc3)n2)c1
Activity (Danio rerio [1]): 93.387%

Compound: Cc1ccc(CNc2nccc(NS(=O)(=O)c3cccc([N+](=O)[O-])c3)n2)cc1
Activity (Danio rerio [1]): 148.37%

Compound: C[C@H](Nc1nccc(NS(=O)(=O)c2cccc([N+](=O)[O-])c2)n1)c1ccc(-c2ccc(F)c(COCCCNC(=O)CCCC[C@@H]3SC[C@@H]4NC(=O)N[C@@H]43)c2)cc1
Activity (Danio rerio [2]): Active

Activity (Danio rerio [6]): Active | Activity (Danio rerio [14]): Active
Compound: Cc1cc(-c2ccc([C@H](C)Nc3nccc(NS(=O)(=O)c4cccc([N+](=O)[O-])c4)n3)cc2)ccc1F
Activity (Danio rerio [3]): 109.9 nmol/kg | Activity (Danio rerio [4]): Active | Activity (Danio rerio [5]): 1.2 nmol/kg | Activity (Danio rerio [7]): 15.09 nmol/kg | Activity (Danio rerio [8]): 527.99 nmol/kg | Activity (Danio rerio [9]): Active | Activity [10]: 137.24% | Activity (Danio rerio [11]): 635.89 nmol/kg | Activity (Danio rerio [12]): 41.08 nmol/kg | Activity (Danio rerio [13]): 21.8 nmol/kg | Activity (Danio rerio [15]): 24.76 nmol/kg | Activity (Danio rerio [16]): 3.14 nmol/kg | Activity (Danio rerio [17]): Active | Activity (Mus musculus [18]): Active | Activity (Danio rerio [19]): 76.93 nmol/kg | Activity (Danio rerio [20]): inactive | Activity (Danio rerio [21]): No effect | Activity (Danio rerio [22]): Active | Activity (Danio rerio [23]): Active | Activity (Mus musculus [24]): Dose-dependent-effect | Activity (Danio rerio [25]): 4.89 nmol/kg | Activity (Danio rerio [1]): 171.43% | Activity [26]: 107.32% | Activity (Danio rerio [27]): Dose-dependent-effect | Activity (Danio rerio [28]): Active | Activity (Danio rerio [29]): 8.23 nmol/kg | Activity (Danio rerio [30]): 16.28 nmol/kg | Activity (Danio rerio [31]): Active | Activity (Danio rerio [32]): 41.42 nmol/kg | Activity (Danio rerio [33]): Active | Activity (Danio rerio [34]): No effect | Activity (Danio rerio [35]): 203749.8 nmol/kg | Activity (Danio rerio [36]): 0.03 nmol/kg | Activity (Danio rerio [37]): Active | Emax at 40 µM (Danio rerio [38]): 197% | Activity (Danio rerio [39]): 81.53 nmol/kg | Activity (Danio rerio [40]): 399.41 nmol/kg | Activity (Danio rerio [41]): 2295.89 nmol/kg | Activity (Danio rerio [42]): Active | Activity (Danio rerio [43]): 0.07 nmol/kg | Activity (Mus musculus [44]): Active; Calcipotriene And Ruxolitinib Was Considerably Less Than The Compound At Concentration Of 1.5% | Activity (Danio rerio [45]): 20.08 nmol/kg

Compound: O=[N+]([O-])c1cccc(S(=O)(=O)Nc2ccnc(Nc3ccccc3)n2)c1
Activity (Danio rerio [1]): 155.77%

Compound: C[C@H](Nc1nccc(NS(=O)(=O)c2cccc([N+](=O)[O-])c2)n1)c1ccccc1
Activity (Danio rerio [1]): 99.105%

Compound: COc1ccc(S(=O)(=O)Nc2ccnc(N[C@@H](C)c3ccc(-c4ccc(F)c(C)c4)cc3)n2)cc1
Activity (Danio rerio [1]): 67.56%

Compound: Cc1ccc(S(=O)(=O)Nc2ccnc(N[C@@H](C)c3ccc(-c4ccc(F)c(C)c4)cc3)n2)cc1
Activity (Danio rerio [1]): 135.69%

Compound: C[C@H](Nc1nccc(NS(=O)(=O)c2cccc([N+](=O)[O-])c2)n1)c1ccc(C2CC2)cc1
Activity (Danio rerio [1]): 149.56%

Compound: Cc1cc(-c2ccc([C@H](C)Nc3nccc(NS(=O)(=O)Cc4ccccc4)n3)cc2)ccc1F
Activity (Danio rerio [1]): 132.22%

Compound: O=[N+]([O-])c1cccc(S(=O)(=O)Nc2ccnc(NCc3ccc(F)cc3)n2)c1
Activity (Danio rerio [1]): 115.42%
